The results in this text go back to patent publication US20260027221A1, “Targeted Pyrrolobenzodiazapine Conjugates” (BeOne Medicines I GmbH, priority 2023, published 2026).

The EC50 is the concentration needed to bring the measured effect to its halfway point. Low readings indicate higher potency in that assay, high ones lower potency in that assay.

The subject of assay [1] is A375 cells. The experiment in a line: Compounds cellular killing in A375 cancer line (Cell Titer-Glo, 6 days). Conditions: 6 days incubation, cell viability by Cell Titer-Glo; for EC50 / Emax: Homo sapiens, A-375, 144 h. It is filed as cell-based, human. Here is the method: A375 (ATCC, CRL-1619). […] The base medium for A375 is DMEM, high glucose, GlutaMAX™ Supplement (Gibco, 10566024). To make the complete growth medium, fetal bovine serum was added to the base mediumat a final concentration of 10% (Gibco, 10099-141C). The cell line was grown in a humidified 5% CO2 atmosphere at 37° C., and was regularly tested for the presence of mycoplasma with MycoAlert™ PLUS Mycoplasma Detection Kit (Lonza, LT07-710).
(§1) Payload direct killing by compounds 1-1 to 1-22 was assessed in A375 and Calu-6 cancer cell lines. Cells were seeded at 1E3/well (A375) 2E3/well (Calu-6) into 96-well plates (Greiner: 655090), 100 μL/well, and incubated at 37° C., 5% CO2, overnight. Fresh growth medium was added containing varying concentrations of compounds, 50 μL/well, and incubated at 37° C., 5% CO2, for 6 days. The cell viability detected by Cell Titer-Glo (Promega, G7573), 70 μL/well. The plates were allowed to incubate at room temperature for 10 minutes to stabilize the luminescent signal. The plates were analyzed with a microplate reader.
(In general: In ATP-based viability assays light output follows the ATP content of the culture.)

In assay [2] the test system is Calu-6 cells. The experiment in a line: Compounds cellular killing in Calu-6 cancer line (Cell Titer-Glo, 6 days). Conditions: 6 days incubation, cell viability by Cell Titer-Glo; for EC50 / Emax: Homo sapiens, Calu-6, 144 h. It is filed as cell-based, human. The method, then: Calu-6 (ATCC, HTB-56). […] The base medium for Calu-6 is Eagle's Minimum Essential Medium (ATCC, 30-2003). To make the complete growth medium, fetal bovine serum was added to the base mediumat a final concentration of 10% (Gibco, 10099-141C). The cell line was grown in a humidified 5% CO2 atmosphere at 37° C., and was regularly tested for the presence of mycoplasma with MycoAlert™ PLUS Mycoplasma Detection Kit (Lonza, LT07-710).
as §1

Values joined by “and” are separate entries in the source; they are usually repeats but may differ in a detail not shown here. Equal values may be shown once.

In assay [1], `COc1cc2c(cc1OCCCCCOc1cc3c(cc1OC)C(=O)N1CC4(CC4)C[C@H]1CN3)N=C[C@@H]1Cc3ccccc3CN1C2=O` [Compound 1-3, (S)-2-methoxy-3-((5-(((S)-7-methoxy-5-oxo-5,10,11,11a-tetrahydro-1H,3H-spiro[benzo[e]pyrrolo[1,2-a][1,4]diazepine-2,1′-cyclopropan]-8-yl)oxy)pentyl)oxy)-7,12-dihydrobenzo[5,6][1,4]diazepino[1,2-b]isoquinolin-14(6aH)-one] gave an EC50 of 0.002 nM and an Emax of 99.9%. In assay [2], this compound showed an EC50 of 0.001 nM and an Emax of 99.3%.
On to `COc1cc2c(cc1OCCOCCOc1cc3c(cc1OC)C(=O)N1CC4(CC4)C[C@H]1C=N3)N=C[C@@H]1Cc3ccccc3CN1C2=O` [Compound 1-5, (S)-2-methoxy-3-(2-(2-(((S)-7-methoxy-5-oxo-5,11a-dihydro-1H,3H-spiro[benzo[e]pyrrolo[1,2-a][1,4]diazepine-2,1′-cyclopropan]-8-yl)oxy)ethoxy)ethoxy)-7,12-dihydrobenzo[5,6][1,4]diazepino[1,2-b]isoquinolin-14(6aH)-one], for which the EC50 in assay [1] is over 1 nM; in assay [2], 0.165 nM. Moreover, the Emax in assay [1] was 39.2%; in assay [2] it was 90.8%.
In the same order, the values of `COc1cc2c(cc1OCCNCCOc1cc3c(cc1OC)C(=O)N1CC4(CC4)C[C@H]1C=N3)N=C[C@@H]1CC3(CC3)CN1C2=O` [Compound 1-13, (11aS,11a″S)-8,8″-((azanediylbis(ethane-2,1-diyl))bis(oxy))bis(7-methoxy-1,11a-dihydro-3H,5H-spiro[benzo[e]pyrrolo[1,2-a][1,4]diazepine-2,1′-cyclopropan]-5-one)] are 9.12 nM, 1.62 nM, 100% and 99.7%.
In assay [1], `C=C1CCN2C(=O)c3cc(OC)c(OCCCCCOc4cc5c(cc4OC)C(=O)N4CC6(CC6)C[C@H]4C=N5)cc3N=C[C@@H]2C1` [Compound 1-7, (S)-7-methoxy-8-((5-(((S)-2-methoxy-8-methylene-12-oxo-6a,7,8,9,10,12-hexahydrobenzo[e]pyrido[1,2-a][1,4]diazepin-3-yl)oxy)pentyl)oxy)-1,11a-dihydro-3H,5H-spiro[benzo[e]pyrrolo[1,2-a][1,4]diazepine-2,1′-cyclopropan]-5-one] came in with an EC50 of 0.102 nM and an Emax of 89%. In assay [2], this compound displayed an EC50 of 0.017 nM and an Emax of 97.7%.
In assay [1], `COc1cc2c(cc1OC/C=C/CCOc1cc3c(cc1OC)C(=O)N1CC4(CC4)C[C@H]1C=N3)N=C[C@@H]1CC3(CC3)CN1C2=O` [Compound 1-19, (11aS,11a″S)-8,8″-(((E)-pent-2-ene-1,5-diyl)bis(oxy))bis(7-methoxy-1,11a-dihydro-3H,5H-spiro[benzo[e]pyrrolo[1,2-a][1,4]diazepine-2,1′-cyclopropan]-5-one)] registered an EC50 of 0.165 nM and an Emax of 88.7%. For the same compound, in assay [2], the midpoint of the response, the EC50, lay at 0.052 nM and the Emax is 90.6%.
In the same order, the values of `COc1cc2c(cc1OCc1cc(O)cc(COc3cc4c(cc3OC)C(=O)N3CC5(CC5)C[C@H]3C=N4)c1)N=C[C@@H]1CC3(CC3)CN1C2=O` [Compound 1-18, (11aS,11a″S)-8,8″-(((5-hydroxy-1,3-phenylene)bis(methylene))bis(oxy))bis(7-methoxy-1,11a-dihydro-3H,5H-spiro[benzo[e]pyrrolo[1,2-a][1,4]diazepine-2,1′-cyclopropan]-5-one)] are 0.398 nM, 80.3%, 0.126 nM and 89.8%.
For `COc1cc2c(cc1OCCCCCOc1cc3c(cc1OC)C(=O)N1C=C(C)C[C@H]1C=N3)N=C[C@@H]1CC(C)=CN1C2=O` [Ref-1-1, reference compound], in assay [1], the “A375 Emax (%)” value was 99.9% and 99.6%; the Emax came to 99.8%. Also, in assay [2], the “Calu-6 Emax (%)” value was 99.8% and 99.3% and 93.1%; the Emax is 99.5%.
